Data taken from US7501281B2, “Compositions, methods and kits related to thrombin, Notch signaling and stamatogenesis and growth of stem cells” (Maine Medical Center Research Institute, priority 2003, dated 2009).
Marks after values point to notes of the source that are not given here.

How the values were obtained:
[1] = tested on: clonal cortical neurospheres; experiment: Cortical neurosphere model, secondary sphere formation; type: cell-based, murine; conditions: for F/SP × 10^2 / Cells/Founder (F) / Secondary Spheres (SP): day 10; for Cells/Founder (F): mean±SD; for Secondary Spheres (SP): from dissociation of founder spheres, mean±SD of three experiments; for secondary spheres per primary sphere: primary spheres grown 2 weeks with the factor, secondary spheres in standard media
Text: The E14 prefrontal ventricular zone was dissected and plated at a clonal neurosphere-forming density in the presence of either sJ1, sDl1, thrombin, TRAP or no supplementation. After 2 weeks, the clones were dissociated to single cells and secondary spheres were generated using standard media with no supplementation (Reynolds et al., 1992, J. Neurosci. 12:4565-4574).
Secondary spheres (SP) are formed from the dissociation of founder (F) spheres. The data presented are the number of colonies (mean±SD of three experiments). (*=p≦0.05).

[2] = tested on: NCSC populations; experiment: Clonogenic differentiation and serial subcloning assays of NCSC clones (secondary NCSC); type: cell-based, murine; parameters: G / Sm / G + Sm: unit not given here; conditions: for NCSC clones that did not express either gliogenic or neurogenic differentiation markers: after 7 days of expansion; for clones that were trifatent (neurons, glial, and smooth muscle progeny): secondary clones established from treated founder clones
Protocol: Clonogenic assays were performed as described (Stemple et al., 1992, Cell 71:973-985). Briefly, populations of murine NCSC were plated at a clonal density and maintained for a maximum of 14 days in Morrison media supplemented with 15% chick embryo extract (Morrison et al., 1999, Cell 96:737-749). The resulting clones were fixed in an acetic acid:ethanol solution (2:1) and stained with antibodies against peripherin (Chemicon) to detect neurons, smooth muscle actin (Sigma) to detect myofibroblasts, and GFAP (Chemicon) to detect Schwann cells. Clones were scored based on the appearance of just one phenotypic representative. The number and percentage of clones containing neurons only (N), Schwann cells only (S), myofibroblasts only (M), N+S, N+M, N+S+M, and S+M were scored at day 14 unless otherwise stated. The production of each representative phenotype in each individual clone was also scored to complement the clonal population assay.
In order to generate secondary NCSC populations, founder clones originating from differentiating E10 clones at distinct time points during NCSC differentiation (days 2 through 18) were treated with trypsin and replated at a cell clonal density using methods previously described (Kubu et al., 2000, Genomics 70:150-152). The resulting cells were subjected to immunofluorescence microscopy using both p75^+ and P0^− antibodies (Kubu et al., 2000, Genomics 70:150-152) and the p75^+/P0^− cells identified as putative stem cells. All non-p75^+/P0^− cells were removed from the dish with a tungsten needle. The cultures of secondary NCSC clones were subjected to the clonogenic assay as described above.
Specifically, clonogenic differentiation and serial subcloning assays were performed using NCSC clones incubated with either thrombin, sDl1, sJ1 or TRAP.
Briefly, presented are the number of colonies with the resulting differentiation profiles (mean±SD of three experiments resulting from individual NCSC isolations).
A genetic approach was used to determine whether thrombin, TRAP, or sJ1 were able to promote cell cycle progression in the NCSC population. Thus, a dnFGFR1 construct was expressed in the NSC cells and the clonogenic differentiation assay conducted in the presence of either sJ1, thrombin or no additional supplement.

[3] = tested on: neurosphere cultures and p75+/P0- neural crest stem cells; experiment: RT-PCR of self-renewal transcripts Nestin, Nucleostemin and Bmi1; type: cell-based, murine; conditions: for relative expression of Nestin, Nucleostemin and Bmi1 transcripts: primary and secondary neurosphere cultures
Protocol: Clonal NCSC neurospheres were generated and allowed to expand for 10 days in either 7.5 nM sJ1, 5 nM sD1, 5 μg/ml α-thrombin, and no additive (control) (FIG. 13A) as described elsewhere herein. Clonal NCSC neurospheres were generated in a feeder-layer coculture system using a monolayer of stable full-length (FL) Jagged1 NIH 3T3 cell transfectants or insert-less NIH 3T3 cell transfectants and treated with either 5 μg/ml thrombin or without further supplementation (control) (FIG. 13B). The results are presented as representative photomicrographs of the spheres obtained under each condition after 14 days of treatment. […] Clonal neurospheres were generated in the presence of either 5 μg/ml α-thrombin, 7.5 nM sJ1, 5 nM sDl1 or no supplement (control) and expanded for 14 days. RT-PCR was used to determine the steady-state mRNA level for three markers of neural stem cells (Nestin, Nucleostemin and Bmi1). An increase in the expression of all three transcripts compared to control was observed. […] Approximately 5×10^2 NCSC were plated in Morrison media supplemented with either 7.5 nM sJ1, 5 μg/ml α-thrombin, 5 nM sD1, 2 ng/ml BMP2 or no additive (control) for 48 hours. The results are presented as the percent of control (mean±standard deviation of three RT-PCR experiments) performed in triplicate. No change in the steady-state level mRNA levels of the three markers relative to actin was observed.
RT-PCR was performed with 1 μg RNA using the Platinum Taq One Step RT-PCR kit (Invitrogen) as follows: RT (30 minutes at 50° C.), PCR (40 cycles at 94° C. for 15 seconds, at 58° C. for 30 seconds and 72° C. for 1 minute). All amplified cDNA was visualized with ethidium bromide followed by 1.5% agarose gel electrophoresis. RT-PCR analysis of fgf and gapdh was performed as previously described elsewhere herein. […] Each reaction product was measured as a ratio relative to the amplification product of actin and samples were run in triplicate. […]

[4] = tested on: FGF1.A transcript in murine NCSC; experiment: RT-PCR analysis of FGF1.A mRNA expression in NCSC; type: cell-based; conditions: 48 hours; 7.5 nM sJ1, 5.0 nM sDl1, 10 μg/ml α-thrombin or 5 μg/ml TRAP
[5] = colonies from secondary NCSC, mean±SD
[6] = dnFGFR1-transduced NCSC, trifatent
[7] = glial-only colonies from secondary NCSC, mean±SD
[8] = secondary stem cells from NCSC founders after ten days of expansion, mean±SD
[9] = smooth muscle-only colonies from secondary NCSC, mean±SD
[10] = trifatent colonies from secondary NCSC, mean±SD

Molecule | F/SP × 10^2 [1] | Cells/Founder (F) [1] | Secondary Spheres (SP) [1] | secondary spheres per primary sphere [1] | NCSC clones that did not express either gliogenic or neurogenic differentiation markers [2] | G + Sm [2, 5] | N + G [2, 5] | N + Sm [2, 5] | G ([2]; dnFGFR1-transduced NCSC) | G + Sm ([2]; dnFGFR1-transduced NCSC) | N + G ([2]; dnFGFR1-transduced NCSC) | N + Sm ([2]; dnFGFR1-transduced NCSC) | Secondary NSSC/Founder ([2]; dnFGFR1-transduced NCSC) | Sm ([2]; dnFGFR1-transduced NCSC) | G [2, 7] | clones that were trifatent (neurons, glial, and smooth muscle progeny) [2] | Secondary NSSC/Founder [2, 8] | Sm [2, 9] | N + G + Sm [2, 10] | expression of the FGF1.A transcript [4] | other results
Thrombin | 13%* | 488 ± 166* | 64 ± 11 | 55±14 | 75±11% | 2.0 ± 2.1 | 3.93 ± 3.8 | 4.5 ± 2.1 | 1.7 ± 3.1 | 6.9 ± 8.3 | 9.8 ± 3.2 | 5.5 ± 1.5 | 13.5 ± 2.9 | 24.13 ± 1.4 | 0 ± 0 | 86.8±2.1% | 36.8 ± 6.3 | 2.6 ± 1.01 | 86.8 ± 2.1 | induced | N ([2]; dnFGFR1-transduced NCSC): 5.9 ± 1.7; N + G + Sm [2, 6]: 46.0 ± 13.6; relative expression of Nestin, Nucleostemin and Bmi1 transcripts [3]: elevated
sJ1: Soluble Jagged1, amino acid residues from about 1 to 1067 (SEQ ID NO:3) of full-length Jagged1 | 10%* | 527 ± 170* | 55 ± 14 | 64±11 | 84±7% | 3.4 ± 2.8 | 7.0 ± 5.6 | 1.5 ± 1.7 | 9.3 ± 2.7 | 10.3 ± 6.3 | 7.2 ± 4.5 | 6.2 ± 7.0 | 13.5 ± 4.7 | 16.4 ± 8.5 | 7.8 ± 1.4 | 74.1±9% | 26.2 ± 6 | 6.2 ± 1.0 | 74.1 ± 9.1 | induced | N + G + Sm [2, 6]: 48.0 ± 11.8; relative expression of Nestin, Nucleostemin and Bmi1 transcripts [3]: elevated
sDl1: soluble non-transmembrane form of the Notch ligand Delta1 (protein, left off: small tags and cut ends, soluble non-transmembrane form of the Notch ligand Delta1) QVWSSGVFELKLQEFVNKKGLLGNRNCCRGGAGPPPCACRTFFRVCLKHYQASVSPEPPCTYGSAVTPVLGVDSFSLPDGGGADSAFSNPIRFPFGFTWPGTFSLIIEALHTDSPDDLATENPERLISRLATQRHLTVGEEWSQDLHSSGRTDLKYSYRFVCDEHYYGEGCSVFCRPRDDAFGHFTCGERGEKVCNPGWKGPYCTEPICLPGCDEQHGFCDKPGECKCRVGWQGRYCDECIRYPGCLHGTCQQPWQCNCQEGWGGLFCNQDLNYCTHHKPCKNGATCTNTGQGSYTCSCRPGYTGATCELGIDECDPSPCKNGGSCTDLENSYSCTCPPGFYGKICELSAMTCADGPCFNGGRCSDSPDGGYSCRCPVGYSGFNCEKKIDYCSSSPCSNGAKCVDLGDAYLCRCQAGFSGRHCDDNVDDCASSPCANGGTCRDGVNDFSCTCPPGYTGRNCSAPVSRCEHAPCHNGATCHERGHRYVCECARGYGGPNCQFLLPELPPGPAVVDLTEKLEGQGGPFPW | 2.0% | 150 ± 69* | 3 ± 3 | 3±3 | 0±0% | 3.4 ± 2.8 | 0 | 0 | – | – | – | – | – | – | 72 ± 6.4 | 0.5% | 0.6 ± 1.0 | 20.5 ± 6.5 | 0.5 ± 0.7 | did not influence | levels of Nestin, Nucleostemin and Bmi1 transcripts ([3]; p75+/P0- neural crest stem cells, 24 and 48 hours): sharply decreased
